Where “and” joins values, the source holds several entries; their conditions need not be identical. Equal values may be shown once. Entries after “also recorded” stand apart in the source; their conditions may differ.
Columns and labels:
[1] = system: cells; assay: Growth inhibition assay (MTS); format: cell-based; conditions: for GI50: MTS, compound treatment 24 or 72 h, read-out: Cell Killing (GI50)
Description: Growth inhibitory data was also collected for all the compounds tested in the redox assay. Following the procedure of Fishel et al, cells were aliquoted into 96 well plates at a concentration of 2-4,000 cells/well in triplicate and allowed to adhere overnight. Cells were then treated with compound for either 24 or 72 h. 3-(4-5-Dimethylthiazol-2-yl)-5-(3-carboxymethoxyphenyl)-2-(4-sulfophenyl)-2H-tetrazolium salt (MTS) was added to the cells following compound treatment and the cells were incubated for an additional 4 hours at 37° C. After incubation with MTS the plates were measured for absorbance at 490 nm. The values were standardized to wells containing media alone.

[2] = molecular target: Ape1 (Homo sapiens, UniProt P27695); assay: Enzymatic redox assay (EMSA, AP-1 DNA binding); format: biochemical; conditions: EMSA, reduced Ape1, oxidized nuclear extracts (Hey-C2 cells), AP-1 DNA probe
[3] = Qualitative solubility in solvents; format: physicochemical; conditions: listed solvents
[4] = molecular target: avidin (Gallus gallus, UniProt P02701); conditions: cited from earlier work
Sequence of avidin (P02701 25-152, species assumed): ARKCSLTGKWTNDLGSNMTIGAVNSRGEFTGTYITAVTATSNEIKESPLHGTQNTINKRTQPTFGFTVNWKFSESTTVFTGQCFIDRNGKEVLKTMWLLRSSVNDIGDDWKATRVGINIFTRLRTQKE

Sequence of Ape1 (P27695 whole entry): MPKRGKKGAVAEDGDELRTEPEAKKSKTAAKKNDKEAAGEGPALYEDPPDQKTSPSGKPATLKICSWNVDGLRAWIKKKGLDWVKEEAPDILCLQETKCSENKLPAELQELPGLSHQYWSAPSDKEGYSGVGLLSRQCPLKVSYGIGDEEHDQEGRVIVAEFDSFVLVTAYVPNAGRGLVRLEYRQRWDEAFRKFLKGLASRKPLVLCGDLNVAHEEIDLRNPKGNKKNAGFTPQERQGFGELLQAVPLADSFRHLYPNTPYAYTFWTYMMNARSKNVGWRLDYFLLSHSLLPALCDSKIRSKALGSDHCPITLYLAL

Row | SMILES | GI50 [1] [µM] | IC50 [2] | melting point | cell-based activity superior to the methyl derivative 10b, factor ([1]; GI50 ratio) | solubility (qualitative) [3] | avidin binding weaker than biotin [4] | solubility (qualitative) ([3]; listed as 93)
1 | COC1=C(OC)C(=O)C(/C=C(\C)C(=O)O)=C(C)C1=O [Compound 10b, (E)-3-(4,5-dimethoxy-2-methyl-3,6-dioxocyclohexa-1,4-dienyl)-2-methylpropenoic acid] | 130 | 3 to 15 µM and 3 µM | 134 to 136 °C | – | – | – | –
2 | CCCC/C(=C\C1=C(C)C(=O)C(OC)=C(OC)C1=O)C(=O)O [Compound 10e, (E)-3-(4,5-dimethoxy-2-methyl-3,6-dioxocyclohexa-1,4-dienyl)-2-butylpropenoic acid] | 85 | 3 to 15 µM and 15 µM | 54 to 55 °C | – | – | – | –
3 | COC1=C(OC)C(=O)C(/C=C(\C)C(=O)O)=C(Cl)C1=O [Compound 23, (E)-3-(2-chloro-4,5-dimethoxy-3,6-dioxocyclohexa-1,4-dienyl)-2-methylpropenoic acid] | 45 | 2.5 µM | 183 to 185 °C | 3 | – | – | –
4 | CC1=C(/C=C(\C)C(=O)O)C(=O)c2ccccc2C1=O [Compound 35a, (E)-3-(3-methyl-1,4-naphthoquinon-2-yl)-2-methylpropenoic acid] | 45 | 15 µM | 195 to 196 °C | – | – | – | –
5 | CCCC/C(=C\C1=C(C)C(=O)c2ccccc2C1=O)C(=O)O [Compound 35b, (E)-3-(3-methyl-1,4-naphthoquinon-2-yl)-2-butylpropenoic acid] | 40 | 25 µM | 119 to 121 °C | – | – | – | –
6 | CCC/C(=C\C1=C(Br)C(=O)c2ccccc2C1=O)C(=O)O [Compound 39b, (E)-3-(3-bromo-1,4-naphthoquinon-2-yl)-2-propylpropenoic acid] | – | – | 145 °C (dec.) | – | – | – | –
7 | C/C(=C\C1=C(Cl)C(=O)c2ccccc2C1=O)C(=O)O [Compound 43a, (E)-3-(3-chloro-1,4-naphthoquinon-2-yl)-2-methylpropenoic acid] | 15 | 1 µM | 229 to 230 °C | – | – | – | –
8 | CCC/C(=C\C1=C(Cl)C(=O)c2ccccc2C1=O)C(=O)O [Compound 43b, (E)-3-(3-chloro-1,4-naphthoquinon-2-yl)-2-propylpropenoic acid] | – | – | 164 °C (dec.) | – | – | – | –
9 | COC1=C(/C=C(\C)C(=O)O)C(=O)c2ccccc2C1=O [Compound 55, (E)-3-(3-methoxy-1,4-naphthoquinon-2-yl)-2-methylpropenoic acid] | 40 | 0.5 µM | 205 °C (dec.) | – | – | – | –
10 | CSC1=C(/C=C(\C)C(=O)O)C(=O)c2ccccc2C1=O [Compound 58, (E)-3-(3-methylsulfanyl-1,4-naphthoquinon-2-yl)-2-methylpropenoic acid] | 30 | 1 µM | 195 to 196 °C | – | – | – | –
11 | COCC/C(=C\C1=C(C)C(=O)c2ccccc2C1=O)C(=O)O [Compound 62a, (E)-3-(3-methyl-1,4-naphthoquinon-2-yl)-2-methoxyethylpropenoic acid] | 30 | 10 µM | 147 to 148 °C | – | – | – | –
12 | COCC/C(=C\C1=C(Br)C(=O)c2ccccc2C1=O)C(=O)O [Compound 62b, (E)-3-(3-bromo-1,4-naphthoquinon-2-yl)-2-methoxyethylpropenoic acid] | 25 | 0.5 µM | 168 to 172 °C | – | – | – | –
13 | COCC/C(=C\C1=C(Cl)C(=O)c2ccccc2C1=O)C(=O)O [Compound 62c, (E)-3-(3-chloro-1,4-naphthoquinon-2-yl)-2-methoxyethylpropenoic acid] | 30 | 3 µM | 160 °C (dec.) | – | – | – | –
14 | COCC/C(=C\C1=C(C)C(=O)C(OC)=C(OC)C1=O)C(=O)O [Compound 64, (E)-3-(4,5-dimethoxy-2-methyl-3,6-dioxocyclohexa-1,4-dienyl)-2-methoxyethylpropenoic acid] | 200 | 10 µM | 104 to 106 °C | – | – | – | –
15 | O=C(O)CCC1=C(Br)C(=O)c2ccccc2C1=O [Compound 69a, 3-(3-Bromo-1,4-naphthoquinon-2-yl)-propionic acid] | 15 | 5 µM | 156 to 157 °C | – | – | – | –
16 | O=C(O)CCCC[C@H]1[C@H]2NC(=O)N[C@H]2CS1(=O)=O [Compound 89, 5-((1R,5S,6S)-3,7,7-trioxo-7-thia-2,4-diazabicyclo[3.3.0]oct-6-yl)pentanoic acid] | – | – | 255 °C | – | Insoluble in CH2Cl2, acetone, MeOH, water; also recorded: Soluble in DMSO and NaOH aq | approximately 3 fold | –
17 | CC(C)(C)OC(=O)NCCCCCCNC(=O)CCCC[C@H]1[C@H]2NC(=O)N[C@H]2CS1(=O)=O [Compound 110, N—(N′-tert-butoxycarbonyl-6-aminohexyl)-5-((1R,5S,6S)-3,7,7-trioxo-7-thia-2,4-diazabicyclo[3.3.0]oct-6-yl)pentanamide] | – | – | 213 to 215 °C | – | Insoluble: CH2Cl2, acetone, NaOH aq; also recorded: Mildly Soluble MeOH, EtOH; also recorded: Soluble: DMSO | – | –
18 | C[C@@H]1NC(=O)N[C@@H]1CCCCCC(=O)NCCCCCCNC(=O)OC(C)(C)C [Compound 111, N—(N′-tert-butoxycarbonyl-6-aminohexyl)-6-[(4R,5S)-5-methyl-imidazolidin-2-on-4-yl]hexanamide] | – | – | – | – | Insoluble: EtOAc, Et2O, H2O, NaOH aq; also recorded: Soluble: acetone, CH2Cl2 | – | –
19 | C/C(=C/C1=C(Cl)C(=O)c2ccccc2C1=O)C(=O)O [Compound Z-43a, (2Z)-3-(3-chloro-1,4-naphthoquinon-2-yl)-2-methylpropenoic acid] | 30 | 1.5 µM | 166 to 169 °C | – | – | – | –
20 | C[C@@H]1NC(=O)N[C@@H]1CCCCCC(=O)O [Desthiobiotin, 6-[(4R,5S)-5-methyl-imidazolidin-2-on-4-yl]hexanoic acid, reference compound] | – | – | – | – | – | – | Insoluble: CH2Cl2, H2O, acetone; also recorded: Soluble: NaOH aq

— patent US9089605B2, “Quinone derivatives, pharmaceutical compositions, and uses thereof” (Indiana University Research and Technology Corporation, priority 2007, dated 2015)
